Experimental findings from ChEMBL document CHEMBL1201862, “PubChem BioAssay data set” (2004) are described below.

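Each compound was tested at five concentrations against cells in 96-well plates for 48 hours. Here, GI50 denotes the concentration required for 50% inhibition of growth.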 Activity calls are given as the source filed them. No stated cut-off is given here; in the data, active = GI50 up to about 1.1 µM and inactive = higher.

Some test systems named below: NCI-H226; OVCAR-4; UACC-62; SK-MEL-5; SW-620; SNB-19; ACHN; K562; EKVX; SF-539; HCT-15; NCI-H23; OVCAR-8; HL-60; HOP-62; SF-268.
Common to all, as to assay: inhibition of tumour cell growth, NCI panel, 48 h

`COc1ccc(C(=O)/C(=N/Nc2ccccc2)c2ccc(OC)cc2)cc1`: the GI50 with NCI-H226 is > 100 µM (inactive); in the test with OVCAR-4, > 100 µM (inactive); in the test with UACC-62, 13.3 µM (inactive); in the test on SK-MEL-5 it was > 100 µM (inactive); in the test on SW-620, > 100 µM (inactive); in the test with SNB-19, > 100 µM (inactive). Also, the GI50 in the test with ACHN was 33.9 µM (inactive); in the test with K562, 20.4 µM (inactive); with EKVX, > 100 µM (inactive); with SF-539, > 100 µM (inactive); in the test with HCT-15, 8.55 µM; with NCI-H23, > 100 µM (inactive). In the test on OVCAR-8, the GI50 was > 100 µM (inactive).
On to `COc1ccc(NC(=O)c2cc(OC)c(OC)c(OC)c2)cc1`, for which the GI50 in the test with HL-60 is 22.2 µM (inactive); in the test on NCI-H226 it was > 78.3 µM (inactive); with HOP-62, 33 µM (inactive); in the test with OVCAR-4, > 100 µM (inactive); in the test on UACC-62, 31 µM (inactive); in the test on SK-MEL-5, 28.2 µM (inactive). Moreover, the GI50 with SW-620 is 39.8 µM (inactive); in the test with SNB-19 it was > 100 µM (inactive); in the test on ACHN, 83.8 µM (inactive); with SF-268, > 56.4 µM (inactive); with K562, 24.7 µM (inactive); in the test with EKVX, > 69.2 µM (inactive). The GI50 in the test with SF-539 was 48 µM (inactive); in the test with HCT-15, 33.4 µM; in the test with NCI-H23, 40.7 µM (inactive); in the test with OVCAR-8, 74.6 µM (inactive).
Regarding `COC(=O)C(/C(=N\O)C(=O)Nc1ccc(Br)cc1)c1nc2ccccc2nc1O` (stereo unspecified), the GI50 with HL-60 was 21.8 µM (inactive); with NCI-H226, 29 µM (inactive); in the test on HOP-62, 28.4 µM (inactive); in the test on OVCAR-4, 64.7 µM (inactive); with UACC-62, 26.9 µM (inactive); in the test on SK-MEL-5 it was 28.6 µM (inactive). Besides, the GI50 in the test with SNB-19 is 78.2 µM (inactive); in the test on ACHN, 49.2 µM (inactive); in the test on SF-268 it was 39.2 µM (inactive); with K562, 26.4 µM (inactive); in the test with EKVX it was 67.3 µM (inactive); in the test on SF-539, 24.4 µM (inactive). Further, the figures for the GI50 in the test on HCT-15, in the test on NCI-H23 and in the test on OVCAR-8 were 64.7 µM, > 100 µM (inactive) and > 100 µM (inactive), respectively.
`CC(C)N1CN(C(C(=O)N[C@@H]2C(=O)N3C2SC(C)(C)C3C(=O)O)c2ccccc2)CSC1=S` (stereo partly specified): the GI50 in the test on HL-60, in the test on HOP-62, with OVCAR-4, with UACC-62, with SK-MEL-5 and with SNB-19 was > 100 µM (inactive) in each case. The GI50 in the test on ACHN is > 100 µM (inactive); in the test with SF-268, > 100 µM (inactive); with K562, 30.6 µM (inactive); in the test with EKVX, > 100 µM (inactive); with SF-539, > 100 µM (inactive); in the test with HCT-15 it was 22.1 µM. Moreover, the GI50 in the test with NCI-H23 and in the test on OVCAR-8 was > 100 µM (inactive) in each case.
With `C[P+](C)(CC(F)(F)F)c1ccccc1`, the GI50 in the test with HL-60, with NCI-H226, with HOP-62, in the test on UACC-62, in the test with SK-MEL-5 and in the test on SW-620 was > 100 µM (inactive) each time. The GI50 in the test with SNB-19 was > 100 µM (inactive); in the test with ACHN, > 100 µM (inactive); in the test with K562, > 100 µM (inactive); with EKVX, > 100 µM (inactive); in the test with SF-539 it was > 100 µM (inactive); in the test on HCT-15, above 100 µM. Further, the GI50 in the test with NCI-H23 and in the test with OVCAR-8 was > 100 µM (inactive) throughout.
For `CNC(=O)CN(CC(=O)O)C(=O)NC`, the GI50 in the test with HL-60, with HOP-62, in the test on OVCAR-4, in the test with UACC-62, in the test on SK-MEL-5 and with SW-620 was > 100 µM (inactive) throughout. Moreover, the GI50 with SNB-19, in the test with ACHN, in the test on SF-268, in the test with K562, in the test on EKVX and with SF-539 was > 100 µM (inactive) throughout. The GI50 is above 100 µM with HCT-15, > 100 µM (inactive) in the test with NCI-H23 and > 100 µM (inactive) with OVCAR-8.
As to `COc1ccc2n[se]nc2c1`, the GI50 is > 100 µM (inactive) with HL-60; > 100 µM (inactive) with OVCAR-4; > 100 µM (inactive) in the test on UACC-62; 50.1 µM (inactive) in the test on SK-MEL-5; > 100 µM (inactive) with SW-620; 69.2 µM (inactive) in the test on SNB-19. In addition, the GI50 in the test with ACHN was > 100 µM (inactive); with SF-268 it was > 100 µM (inactive); with K562 it was > 100 µM (inactive); with EKVX it was > 100 µM (inactive); in the test on SF-539 it was 23.1 µM (inactive); with HCT-15 it was above 100 µM. Further, the GI50 with NCI-H23 and in the test on OVCAR-8 was > 100 µM (inactive) in each case.
As to `COc1cccc(/C=C2\CCC(CCN(C)C)(C3=CCCC3)C2=O)c1` (stereo unspecified), the GI50 in the test on NCI-H226 is 17.1 µM (inactive); with HOP-62, 17.2 µM (inactive); in the test on OVCAR-4, 16.4 µM (inactive); in the test on UACC-62, 15.4 µM (inactive); in the test with SK-MEL-5, 17.7 µM (inactive); in the test with SW-620 it was 13.9 µM (inactive). Also, the GI50 is 16.8 µM (inactive) in the test on SNB-19; 16.7 µM (inactive) in the test with ACHN; 21.3 µM (inactive) in the test with SF-268; 15.5 µM (inactive) in the test with K562; 16.1 µM (inactive) in the test with SF-539; 16.2 µM in the test on HCT-15. In addition, the GI50 with NCI-H23 is 19.3 µM (inactive); in the test on OVCAR-8, 17.3 µM (inactive).
Regarding `O=C1CCCC1NC(=O)C(F)(F)F` (stereo unspecified), the GI50 with HL-60, in the test on NCI-H226, with HOP-62, with OVCAR-4, with UACC-62 and in the test on SK-MEL-5 was > 100 µM (inactive) in each case. Also, the GI50 with SW-620, in the test with SNB-19, with ACHN, with SF-268, in the test on K562 and with EKVX was > 100 µM (inactive) in each case. Also, the GI50 in the test with SF-539, in the test with NCI-H23 and in the test with OVCAR-8 was > 100 µM (inactive) throughout.
In the case of `CN1CCN(CN2C(=O)C3C4C=CC(C3C2=O)C2C3C(=O)N(CN5CCN(C)CC5)C(=O)C3C42)CC1` (stereo unspecified), the GI50 in the test on HOP-62 was 70 µM (inactive); in the test on OVCAR-4, 21.3 µM (inactive); with UACC-62, 22.2 µM (inactive); in the test with SK-MEL-5, 17 µM (inactive); in the test with SW-620, 19 µM (inactive); in the test on ACHN, 28.2 µM (inactive). The GI50 in the test on SF-268 is 25.3 µM (inactive); with K562, 26.9 µM (inactive); in the test on SF-539 it was 22.2 µM (inactive); in the test with HCT-15, 16.9 µM; in the test with NCI-H23, 21.2 µM (inactive); in the test on OVCAR-8 it was 17.7 µM (inactive).
Consider `COc1ccc(C2C(Cl)C(=O)N2n2cnc3ccccc3c2=O)cc1OC` (stereo unspecified), for which the GI50 was 57.7 µM (inactive) in the test with HL-60; 30.5 µM (inactive) in the test on NCI-H226; > 100 µM (inactive) in the test with HOP-62; > 100 µM (inactive) with OVCAR-4; 74.1 µM (inactive) in the test on UACC-62; > 100 µM (inactive) in the test with SK-MEL-5. Besides, the GI50 in the test with SW-620 was > 100 µM (inactive); in the test on SNB-19, 52.4 µM (inactive); in the test with ACHN, > 100 µM (inactive); with SF-268, 85.7 µM (inactive); in the test with K562 it was > 100 µM (inactive); with EKVX it was > 100 µM (inactive). Moreover, the figures for the GI50 in the test with HCT-15, in the test on NCI-H23 and in the test with OVCAR-8 were above 100 µM, 42 µM (inactive) and > 100 µM (inactive), respectively.
Consider `COc1cc2c(cc1OC)c1c(OC)c(OC)cc3c1c1c2sc(=S)n1CC3`, for which the GI50 with HL-60 is 26.9 µM (inactive); in the test on NCI-H226, > 100 µM (inactive); with OVCAR-4, 55 µM (inactive); in the test on UACC-62, 24.4 µM (inactive); in the test on SK-MEL-5 it was 41.5 µM (inactive); with SW-620 it was 51.1 µM (inactive). The GI50 in the test on SNB-19 is 67.1 µM (inactive); in the test with ACHN it was > 100 µM (inactive); in the test with SF-268, 28.7 µM (inactive); in the test with K562, 21.6 µM (inactive); with EKVX, > 100 µM (inactive); in the test on SF-539, 48.3 µM (inactive). Also, the results for the GI50 in the test on HCT-15, in the test on NCI-H23 and in the test with OVCAR-8 were 42.3 µM, 44.4 µM (inactive) and 41.8 µM (inactive), respectively.
For the compound `COc1ccc(/C=C2\CCC(C)(CN(C)C)C2=O)cc1OC` (stereo unspecified), the GI50 in the test with NCI-H226, in the test with HOP-62, in the test on OVCAR-4, in the test with UACC-62, in the test with SK-MEL-5 and in the test with SW-620 was > 100 µM (inactive) throughout. The GI50 was > 100 µM (inactive) in the test with SNB-19; > 100 µM (inactive) with ACHN; > 100 µM (inactive) in the test on SF-268; > 100 µM (inactive) with K562; 32.8 µM (inactive) with EKVX; > 100 µM (inactive) in the test on SF-539. The results for the GI50 with HCT-15, in the test with NCI-H23 and in the test with OVCAR-8 were above 100 µM, > 100 µM (inactive) and > 100 µM (inactive), respectively.
For `CC(=O)Oc1cc2c(cc1OC(C)=O)C1(C)CCC2(C)c2cc(OC(C)=O)c(OC(C)=O)cc21`, the GI50 with HL-60 is 4.13 µM (inactive); in the test with HOP-62, 21.6 µM (inactive); with OVCAR-4, 14.4 µM (inactive); in the test on UACC-62, 13.2 µM (inactive); with SK-MEL-5, 22.6 µM (inactive); in the test with SW-620, 7.73 µM (inactive). The GI50 is 4.75 µM (inactive) in the test on SNB-19; 26.1 µM (inactive) in the test on ACHN; 19.2 µM (inactive) in the test with SF-268; 5.6 µM (inactive) with K562; 35.8 µM (inactive) in the test with EKVX; 6.92 µM in the test on HCT-15. For the same compound, the GI50 in the test on NCI-H23 is 43.2 µM (inactive); in the test with OVCAR-8, 15 µM (inactive).
